Test results from article PMC9298194, “Clinical Pharmacokinetics of Daprodustat: Results of an Absorption, Distribution, and Excretion Study With Intravenous Microtracer and Concomitant Oral Doses for Bioavailability Determination” (Clinical Pharmacology in Drug Development, 2021).
Like-named read-outs stand apart in the source and are kept apart here.

Legend:
[1] = human; ref internal GSK reports; cited from earlier work
[2] = Safety and tolerability (adverse events) in healthy male participants; type: in vivo, human; conditions: for deaths or serious adverse events: 6 healthy men
Excerpt: Safety and tolerability measures included assessment of adverse events (AEs), serious adverse events (SAEs), clinical laboratory findings, vital signs (systolic and diastolic blood pressure and pulse rate), ECGs, and concurrent medications. An AE was defined as any untoward medical occurrence in a participant temporally associated with the use of an investigational product, whether or not considered related to the investigational product. […] The investigator or site staff was responsible for detecting, documenting, and reporting events that met the definition of an AE or SAE.

[3] = Plasma daprodustat pharmacokinetics in healthy male participants (6 mg oral tablet, 50 μg IV microtracer, 25 mg oral solution); type: in vivo, human; conditions: for AUC / tmax / Cmax / half-life: plasma daprodustat; for tmax: median (range); for Cmax: arithmetic mean (SD); for half-life: read-out: t½ (converted)
Description: On day 1 of treatment period 1, after an overnight fast of at least 8 hours, each participant took a single 6 mg oral dose of daprodustat; participants continued to fast for < 3 hours when a small amount of food was administered to stimulate bile release for the Entero‐Test. After ≈1 hour, participants received 50 μg of [^14C]‐GSK1278863 (≈4.63 kBq; 125 nCi) by IV infusion over 1 hour. Blood samples were collected for 144 hours after oral dosing (until day 7). Participants were discharged on study day 7 after completion of the 144‐hour sample collection. The Entero‐Test was swallowed 3.5 hours before the oral dose of daprodustat (while in the fasted state) and removed 3 hours after the oral dose (about 1 hour after completion of the IV infusion). About 1.5 hours before string withdrawal, a food cue was used to stimulate gallbladder emptying.
On day 1 of treatment period 2, after an overnight fast of at least 8 hours, each participant received 25 mg [^14C]‐GSK1278863 (≈2.31 MBq; 62.5 μCi) as an oral solution; participants continued to fast for 4 hours after dosing.[15] Blood, urine, and fecal samples were collected for a minimum of 144 hours (up to day 7) after dosing, depending on the amount of radioactivity excreted by each participant in excreta collected daily. Liquid scintillation counting (LSC) was performed on these excreta collections on an ongoing basis to assess recovery of the radioactivity dosed. Participants were discharged if ≥90% and <1% of the dose was excreted on both days 6 and 7.
As per standard practice for administration of radiolabeled drug, the IV and oral dosing solutions were analyzed for daprodustat via assessment of the radioactivity and through application of the predetermined specific activity. Whole blood samples were collected for measurement of each of the following: blood total radioactivity in period 2 and plasma total radioactivity in period 1, plasma concentrations of daprodustat, and the 6 predominant circulating metabolites in periods 1 and 2. Blood samples were collected at 1, 3, and 6 hours after dosing for blood assessments. Blood samples were collected for plasma assessments before dosing and at 0.50, 1, 1.25, 1.5, 2, 3, 4, 6, 8, 10, 12, 24, 36, 48, 72, 96, 120, and 144 hours after dosing.
Daprodustat and [^14C]‐GSK1278863 plasma concentrations were measured in treatment period 1: 6 mg daprodustat oral tablet, followed by a 1‐hour IV infusion of 50 μg [^14C]‐GSK1278863, started 1 hour after tablet administration, and in treatment period 2: 25 mg [^14C]‐GSK1278863 oral solution.
Plasma samples from periods 1 and 2 were analyzed for daprodustat and its 6 metabolites by PPD Laboratories using a validated analytical method based on protein precipitation, followed by high‐performance liquid chromatography with tandem mass spectrometric detection analysis, as described previously.[7], [8] Specifically, the lower limit of quantification (LLQ) for this study was 0.100 ng/mL using a 100 μL aliquot of ethylenediaminetetraacetic acid plasma for all 7 analytes. The higher limit of quantification was 100 ng/mL for all 7 analytes. The data accuracy (% bias range: −2.21 to −0.400 to 0.560‐5.85) and precision (% coefficient of variation of 3.99‐7.13) met acceptable limits as recommended by the US Food and Drug Administration in their bioanalytical method validation guidelines.[17] Final PK concentration data for period 1 after 1‐hour samples for daprodustat were further corrected to account for radiolabeled ^14C dose.
Plasma samples collected from period 1 were analyzed for [^14C]‐GSK1278863 by GSK using a validated analytical method, based on protein precipitation, followed by liquid chromatography–AMS analysis. The LLQ was 1.80 pg/mL, using a 600 μL aliquot of human plasma with a higher limit of quantification of 358.92 pg/mL. Accuracy for the 5 validation levels were between −9.2% and 2.2%, and precision was between 2.5% and 10.8%. […]

[4] = ref GSK data on file; cited from earlier work
[5] = Period 1: 6‐mg oral tablet + 50‐μg IV
[6] = 6 mg tablet vs 50 μg IV dose (120-fold dose difference), period 1
[7] = 25 mg oral solution vs 6 mg oral tablet (4.17-fold dose difference)

SMILES: O=C(O)CNC(=O)C1C(=O)N(C2CCCCC2)C(=O)N(C2CCCCC2)C1=O [Daprodustat]
- blood:plasma ratio [1]: 1.23
- participants reporting AEs ([2]; 3 of 6 participants): 50%
- Back pain [2, 5]: 1 (17) n (%)
- Decreased appetite [2, 5]: 1 (17) n (%)
- Headache [2, 5]: 1 (17) n (%)
- Musculoskeletal chest pain [2, 5]: 0 n (%)
- Myalgia [2, 5]: 1 (17) n (%)
- Oropharyngeal pain [2, 5]: 0 n (%)
- Back pain ([2]; Period 2: 25‐mg oral solution): 0 n (%)
- Decreased appetite ([2]; Period 2: 25‐mg oral solution): 0 n (%)
- Headache ([2]; Period 2: 25‐mg oral solution): 1 (17) n (%)
- Musculoskeletal chest pain ([2]; Period 2: 25‐mg oral solution): 1 (17) n (%)
- Myalgia ([2]; Period 2: 25‐mg oral solution): 0 n (%)
- Oropharyngeal pain ([2]; Period 2: 25‐mg oral solution): 1 (17) n (%)
- Back pain ([2]; Total): 1 (17) n (%)
- Decreased appetite ([2]; Total): 1 (17) n (%)
- Headache ([2]; Total): 1 (17) n (%)
- Musculoskeletal chest pain ([2]; Total): 1 (17) n (%)
- Myalgia ([2]; Total): 1 (17) n (%)
- Oropharyngeal pain ([2]; Total): 1 (17) n (%)
- deaths or serious adverse events ([2]; both treatment periods): no deaths or serious or significant adverse events reported
- deaths or serious adverse events ([2]; both treatment periods, listed as daprodustat): No deaths or other SAEs
- total number of AEs reported ([2]; both treatment periods, N = 6): 7
- tolerability ([2]; oral tablet, microtracer IV or oral solution dose): generally well tolerated
- absolute bioavailability (oral F) ([3]; 6 mg oral tablet, based on AUC0‐inf): 66.1%
- fold difference in mean AUC0‐t, oral tablet vs IV [3, 6]: 75.0 fold
- fold difference in mean Cmax, oral tablet vs IV [3, 6]: 47.2 fold
- fold increase in total exposure (AUC0‐inf), solution vs tablet ([3]; 25 mg oral solution vs 6 mg oral tablet): 4.84 fold
- fold increase in mean AUC0‐t, solution vs tablet [3, 7]: 4.84 fold
- fold increase in mean Cmax, solution vs tablet [3, 7]: 5.86 fold
- Oral F (0‐inf) ([3]; absolute bioavailability, 6 mg oral tablet vs IV microtracer, fraction, mean (SD), n = 3): 0.661 (0.077)
- clearance ([3]; male, human, blood, 50 μg, translated from plasma CL after IV administration, read-out: blood CL (converted)): ~250 mL/min
- AUC ([3]; male, human, plasma, iv, 50 μg, [14C] 50 μg IV infusion, mean (SD), n = 3, read-out: AUC0‐inf): 2.71 ng·h/mL
- AUC ([3]; male, human, plasma, iv, 50 μg, [14C] 50 μg IV infusion, mean (SD), read-out: AUC0‐t): 2.68 ng·h/mL
- tmax ([3]; male, human, plasma, iv, 50 μg, [14C] 50 μg IV infusion, read-out: tmax): 1 h
- bioavailability ([3]; male, human, plasma, po, 6 mg, 6 mg oral tablet, based on AUC0‐inf, read-out: absolute bioavailability (oral F)): ~66%
- AUC ([3]; male, human, plasma, po, 6 mg, 6 mg oral tablet, mean (SD), read-out: AUC0‐inf): 202 ng·h/mL
- AUC ([3]; male, human, plasma, po, 6 mg, 6 mg oral tablet, mean (SD), read-out: AUC0‐t): 201 ng·h/mL
- tmax ([3]; male, human, plasma, po, 6 mg, 6 mg oral tablet, read-out: tmax): ~2 h
- AUC ([3]; male, human, plasma, po, 25 mg, [14C] 25 mg oral solution, mean (SD), read-out: AUC0‐inf): 974 ng·h/mL
- AUC ([3]; male, human, plasma, po, 25 mg, [14C] 25 mg oral solution, mean (SD), read-out: AUC0‐t): 972 ng·h/mL
- tmax ([3]; male, human, plasma, po, 25 mg, [14C] 25 mg oral solution, read-out: tmax): ~0.5 h
- Vd ([3]; male, human, plasma, [14C] 50 μg IV infusion, mean (SD), n = 3, read-out: Vss): 14.6 L
- clearance ([3]; male, human, plasma clearance, [14C] 50 μg IV infusion, mean (SD), n = 3, read-out: CL (converted)): 322 mL/min
- Cmax ([3]; male, human, 6 mg oral tablet): 97.3 ng/mL
- half-life ([3]; male, human, 6 mg oral tablet, mean (SD)): 1.92 h
- Cmax ([3]; male, human, [14C] 50 μg IV infusion over 1 h): 2.06 ng/mL
- half-life ([3]; male, human, [14C] 50 μg IV infusion, mean (SD), n = 3): 2.07 h
- Cmax ([3]; male, human, [14C] 25 mg oral solution): 570 ng/mL
- half-life ([3]; male, human, [14C] 25 mg oral solution, mean (SD)): 2.6 h
- tmax ([3]; 6 mg oral tablet): 2.12 (1.42−4.00) h
- tmax ([3]; [14C] 50 μg IV infusion): 0.983 (0.983−0.983) h
- tmax ([3]; [14C] 25 mg oral solution): 0.500 (0.500−0.517) h
- protein binding [4]: > 99%
